Assay results taken from PMC9656787, “Design, Synthesis and Biological Evaluation of Novel 1,3,5-Triazines: Effect of Aromatic Ring Decoration on Affinity to 5-HT7 Receptor” (International Journal of Molecular Sciences, 2022).
Values joined by “and” are separate entries in the source; they are usually repeats but may differ in a detail not shown here. Identical values can stand only once.

Columns and labels:
5-HT6 receptor = biological target: T1, 5-HT6 receptor (Homo sapiens, UniProt P50406); assay: Radioligand binding assay, 5-HT6 receptor; settings: mean ± SD, triplicate at 7 concentrations, Cheng-Prusoff; read-out: Affinity Ki 5-HT6R
T1 construct: host or cells: cell membranes from cultured cells
Experimental: (§1) The affinity of the studied compounds to 5-HT1A, 5-HT2A, 5-HT6, 5-HT7, and D2 receptors was evaluated by a radioligand assay, as reported previously (Table 1). Each compound was tested in triplicate at seven concentrations (from 0.1 nM to 100 µM). Inhibition constants (Ki) were calculated from the Cheng–Prusoff equation [23].
(§2) The cell culture, cell membranes, and radioligand binding assays were performed in accordance with standard protocols.

D2 receptor = biological target: T2, D2 receptor (Homo sapiens, UniProt P14416); assay: Radioligand binding assay, D2 receptor; settings: mean ± SD, triplicate at 7 concentrations, Cheng-Prusoff; read-out: Affinity Ki D2R
T2 construct: host or cells: cell membranes from cultured cells
Experimental: as §1, §2

5-HT2A receptor = biological target: T3, 5-HT2A receptor (Homo sapiens, UniProt P28223); assay: Radioligand binding assay, 5-HT2A receptor; settings: mean ± SD, triplicate at 7 concentrations, Cheng-Prusoff; read-out: Affinity Ki 5-HT2AR
T3 construct: host or cells: cell membranes from cultured cells
Experimental: as §1, §2

5-HT7 receptor = biological target: T4, 5-HT7 receptor (Homo sapiens, UniProt P34969); assay: Radioligand binding assay, 5-HT7 receptor; settings: for activity with respect to 5-HT7R (in words): SAR discussion of radioligand data; for Ki: mean ± SD, triplicate at 7 concentrations, Cheng-Prusoff, read-out: Affinity Ki 5-HT7R
T4 construct: host or cells: cell membranes from cultured cells
Experimental: as §1, §2

5-HT1A receptor = biological target: T5, 5-HT1A receptor (Homo sapiens, UniProt P08908); assay: Radioligand binding assay, 5-HT1A receptor; settings: mean ± SD, triplicate at 7 concentrations, Cheng-Prusoff; read-out: Affinity Ki 5-HT1AR
T5 construct: host or cells: cell membranes from cultured cells
T5 sequence (P08908 1-422): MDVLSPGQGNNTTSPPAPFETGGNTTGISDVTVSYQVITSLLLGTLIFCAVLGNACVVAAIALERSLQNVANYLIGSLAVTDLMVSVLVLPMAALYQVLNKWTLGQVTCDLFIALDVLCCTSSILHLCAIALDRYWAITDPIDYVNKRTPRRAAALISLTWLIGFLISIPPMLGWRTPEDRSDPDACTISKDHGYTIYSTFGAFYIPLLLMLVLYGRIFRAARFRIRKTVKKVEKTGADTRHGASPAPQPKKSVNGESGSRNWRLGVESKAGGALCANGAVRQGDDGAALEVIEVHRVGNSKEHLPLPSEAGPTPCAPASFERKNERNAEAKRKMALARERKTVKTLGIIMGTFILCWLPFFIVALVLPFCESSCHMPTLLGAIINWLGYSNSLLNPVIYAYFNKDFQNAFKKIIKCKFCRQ
Experimental: as §1, §2

T2 sequence (P14416 whole entry): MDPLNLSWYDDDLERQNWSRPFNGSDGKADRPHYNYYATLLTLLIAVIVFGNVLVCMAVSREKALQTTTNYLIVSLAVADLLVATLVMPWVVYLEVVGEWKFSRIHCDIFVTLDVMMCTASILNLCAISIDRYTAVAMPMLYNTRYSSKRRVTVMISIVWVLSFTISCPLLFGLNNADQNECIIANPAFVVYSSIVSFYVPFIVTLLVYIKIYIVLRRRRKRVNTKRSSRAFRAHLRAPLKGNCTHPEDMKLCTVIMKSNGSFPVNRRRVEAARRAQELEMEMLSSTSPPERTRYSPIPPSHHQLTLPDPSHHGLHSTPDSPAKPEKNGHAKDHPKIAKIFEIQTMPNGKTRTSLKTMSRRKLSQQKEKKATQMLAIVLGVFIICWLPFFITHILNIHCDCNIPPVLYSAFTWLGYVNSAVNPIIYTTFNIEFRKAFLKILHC
T3 sequence (P28223 whole entry): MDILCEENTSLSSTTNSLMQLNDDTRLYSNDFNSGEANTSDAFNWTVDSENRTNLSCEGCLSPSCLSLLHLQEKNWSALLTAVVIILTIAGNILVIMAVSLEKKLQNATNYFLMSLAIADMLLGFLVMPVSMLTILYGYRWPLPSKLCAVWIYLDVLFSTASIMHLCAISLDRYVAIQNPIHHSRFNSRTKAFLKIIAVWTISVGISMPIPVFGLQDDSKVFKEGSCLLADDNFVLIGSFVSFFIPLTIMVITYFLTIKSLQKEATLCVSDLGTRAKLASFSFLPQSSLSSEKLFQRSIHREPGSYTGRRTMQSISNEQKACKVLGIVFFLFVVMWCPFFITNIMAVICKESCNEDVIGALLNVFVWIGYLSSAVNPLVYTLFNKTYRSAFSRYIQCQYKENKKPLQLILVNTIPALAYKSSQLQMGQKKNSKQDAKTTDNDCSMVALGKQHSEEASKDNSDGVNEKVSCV
T4 sequence (P34969 1-432 limits assumed): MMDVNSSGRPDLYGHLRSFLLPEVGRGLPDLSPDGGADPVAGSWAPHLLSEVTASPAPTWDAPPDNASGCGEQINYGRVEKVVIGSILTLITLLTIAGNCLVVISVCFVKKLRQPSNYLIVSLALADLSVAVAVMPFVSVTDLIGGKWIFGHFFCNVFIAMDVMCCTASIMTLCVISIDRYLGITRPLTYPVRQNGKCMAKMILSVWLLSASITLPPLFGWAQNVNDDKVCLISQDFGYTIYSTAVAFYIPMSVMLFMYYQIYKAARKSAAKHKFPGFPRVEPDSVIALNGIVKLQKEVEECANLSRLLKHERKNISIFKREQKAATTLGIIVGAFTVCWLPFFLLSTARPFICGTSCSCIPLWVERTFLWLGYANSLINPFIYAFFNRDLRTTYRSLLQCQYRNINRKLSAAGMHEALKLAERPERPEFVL
T1 sequence (P50406 whole entry): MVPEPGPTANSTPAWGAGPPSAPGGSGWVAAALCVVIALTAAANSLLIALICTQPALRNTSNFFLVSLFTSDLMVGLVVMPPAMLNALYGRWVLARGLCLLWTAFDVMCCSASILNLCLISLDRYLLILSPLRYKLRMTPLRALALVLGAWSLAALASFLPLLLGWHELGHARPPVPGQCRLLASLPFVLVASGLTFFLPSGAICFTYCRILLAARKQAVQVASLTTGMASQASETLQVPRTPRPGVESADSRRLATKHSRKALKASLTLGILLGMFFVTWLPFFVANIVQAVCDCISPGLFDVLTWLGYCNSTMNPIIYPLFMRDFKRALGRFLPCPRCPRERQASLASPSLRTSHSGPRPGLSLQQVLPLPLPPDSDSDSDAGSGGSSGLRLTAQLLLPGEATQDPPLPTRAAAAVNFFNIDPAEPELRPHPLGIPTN

| melting point [°C] | Ki (5-HT6 receptor) [µM] | Ki (5-HT7 receptor) | Compound | Ki (D2 receptor) [µM] | Ki (5-HT2A receptor) [µM] | activity with respect to 5-HT7R (in words) (5-HT7 receptor) | Ki (5-HT1A receptor) [µM] |
| --- | --- | --- | --- | --- | --- | --- | --- |
| 136 to 138 | 8.76 ± 1.76 | > 1 µM and 21.6 µM | Cl.Nc1nc(NCCc2c[nH]c3ccccc23)nc(NCCN2C(=O)c3ccccc3C2=O)n1 [Compound 16, 2-(2-((4-((2-(1H-Indol-3-yl)ethyl)amino)-6-Amino-1,3,5-Triazin-2-yl)amino)ethyl)isoindoline-1,3-Dione Hydrochloride] | 13.3 | 22.4 |  |  |
| 118 to 121 | 0.714 ± 0.112 | 0.1 ± 0.015 µM | Cc1ccc2[nH]cc(CCNc3nc(N)nc(NCCc4ccccc4)n3)c2c1.Cl [Compound 6, N^2-(2-(5-Methyl-1H-Indol-3-yl)ethyl)-N^4-Phenethyl-1,3,5-Triazine-2,4,6-Triamine Hydrochloride] |  | 0.835 ± 0.168 |  | 16.6 |
| 190 to 194 | 1.96 ± 0.269 | > 1 µM and 4.13 µM | Cc1nc2ccccc2n1CCNc1nc(N)nc(NCCc2c[nH]c3ccccc23)n1.Cl [Compound 18, N^2-(2-(1H-indol-3-yl)ethyl)-N^4-(2-(2-methyl-1H-benzo[d]imidazol-1-yl)ethyl)-1,3,5-triazine-2,4,6-triamine hydrochloride] |  | 9.35 ± 0.831 |  |  |
| 140 to 143 | 2.79 ± 0.342 | 1.04 ± 0.081 µM | COc1cccc(NCCNc2nc(N)nc(NCCc3c[nH]c4ccccc34)n2)c1.Cl [Compound 14, N^2-(2-(1H-Indol-3-yl)ethyl)-N^4-(2-((3-Methoxyphenyl)amino)ethyl)-1,3,5-Triazine-2,4,6-Triamine Hydrochloride] | 36 | 2.45 ± 0.273 |  |  |
| 108 to 110 | 0.825 ± 0.072 | > 1 µM and 3.46 µM | Cl.Nc1nc(NCCc2c[nH]c3ccccc23)nc(NCCn2c(C(F)(F)F)nc3ccccc32)n1 [Compound 19, N^2-(2-(1H-Indol-3-yl)ethyl)-N^4-(2-(2-(Trifluoromethyl)-1H-Benzo[d]imidazol-1-yl)ethyl)-1,3,5-Triazine-2,4,6-Triamine Hydrochloride] |  | 4.03 ± 0.537 |  | 76.2 |
| 82 to 85 | 0.234 ± 0.027 | 0.126 ± 0.017 µM | Cl.Nc1nc(NCCc2ccccc2)nc(NCCc2c[nH]c3ccc(Br)cc23)n1 [Compound 3, N^2-(2-(5-Bromo-1H-Indol-3-yl)ethyl)-N^4-Phenethyl-1,3,5-Triazine-2,4,6-Triamine Hydrochloride] |  | 0.942 ± 0.112 |  | 11 |
| 150 to 153 |  | 0.756 ± 0.107 µM | COc1ccc(NCCNc2nc(N)nc(NCCc3c[nH]c4ccccc34)n2)cc1.Cl [Compound 15, N^2-(2-(1H-Indol-3-yl)ethyl)-N^4-(2-((4-Methoxyphenyl)amino)ethyl)-1,3,5-Triazine-2,4,6-Triamine Hydrochloride] |  |  |  |  |
| 111 to 115 | 0.509 ± 0.033 | 0.629 ± 0.148 µM | COc1ccc2[nH]cc(CCNc3nc(N)nc(NCCc4ccccc4)n3)c2c1.Cl [Compound 5, N^2-(2-(5-Methoxy-1H-Indol-3-yl)ethyl)-N^4-Phenethyl-1,3,5-Triazine-2,4,6-Triamine Hydrochloride] |  | 0.883 ± 0.108 |  | 3.13 ± 0.758 |
| 195 to 200 | 2.63 ± 0.427 | 0.227 ± 0.037 µM | Cl.Nc1nc(NCCc2c[nH]c3ccccc23)nc(NCCn2cnc3ccccc32)n1 [Compound 17, N^2-(2-(1H-Benzo[d]imidazol-1-yl)ethyl)-N^4-(2-(1H-Indol-3-yl)ethyl)-1,3,5-Triazine-2,4,6-Triamine Hydrochloride] |  | 11.1 |  | 63 |
| 106 to 108 | 0.702 ± 0.048 | 0.481 ± 0.023 µM | Cl.Nc1nc(NCCc2ccccc2)nc(NCCc2c[nH]c3ccc(Cl)cc23)n1 [Compound 4, N^2-(2-(5-Chloro-1H-Indol-3-yl)ethyl)-N^4-Phenethyl-1,3,5-Triazine-2,4,6-Triamine Hydrochloride] | 14.5 | 0.559 ± 0.041 |  | 3.91 ± 0.581 |

| Compound | melting point [°C] | Ki (5-HT6 receptor) [µM] | Ki (5-HT7 receptor) | Ki (D2 receptor) [µM] | Ki (5-HT2A receptor) [µM] | activity with respect to 5-HT7R (in words) (5-HT7 receptor) | Ki (5-HT1A receptor) [µM] |
| --- | --- | --- | --- | --- | --- | --- | --- |
| Cl.Nc1nc(NCCc2c[nH]c3ccccc23)nc(Nc2ccc(F)cc2)n1 [Compound 21, N^2-(2-(1H-Indol-3-yl)ethyl)-N^4-(4-Fluorophenyl)-1,3,5-Triazine-2,4,6-Triamine Hydrochloride] | 232 to 235 | 1.77 ± 0.243 | 2.05 ± 0.419 µM | 7.03 ± 0.439 | 0.884 ± 0.073 | inactive |  |
| Cl.N#Cc1ccc2[nH]cc(CCNc3nc(N)nc(NCCc4ccccc4)n3)c2c1 [Compound 1, 3-(2-((4-Amino-6-(Phenethylamino)-1,3,5-Triazin-2-yl)Amino)Ethyl)-1H-Indole-5-Carbonitrile Hydrochloride] | 95 to 98 |  | 2.88 ± 0.351 µM |  | 0.927 ± 0.927 | activity toward the 5-HT7 receptor being lost | 13 |
| COc1ccc(Nc2nc(N)nc(NCCc3c[nH]c4ccccc34)n2)cc1.Cl [Compound 22, N^2-(2-(1H-Indol-3-yl)ethyl)-N^4-(4-Methoxyphenyl)-1,3,5-Triazine-2,4,6-Triamine Hydrochloride] | 194 to 196 | 3.74 ± 0.539 | 0.727 ± 0.107 µM |  | 3.11 ± 0.438 | weakly active | 79.8 |
| Cl.Nc1nc(NCCNc2ccccc2F)nc(NCCc2c[nH]c3ccccc23)n1 [Compound 10, N^2-(2-(1H-Indol-3-yl)ethyl)-N^4-(2-((2-Fluorophenyl)amino)ethyl)-1,3,5-Triazine-2,4,6-Triamine Hydrochloride] | 94 to 97 | 0.982 ± 0.115 | 0.132 ± 0.009 µM | 20.4 | 1.51 ± 0.362 | moderately active | 36.5 |
| Cl.Nc1nc(NCCNc2ccccc2Cl)nc(NCCc2c[nH]c3ccccc23)n1 [Compound 7, N^2-(2-(1H-Indol-3-yl)ethyl)-N^4-(2-((2-Chlorophenyl)amino)ethyl)-1,3,5-Triazine-2,4,6-Triamine Hydrochloride] | 105 to 108 | 0.892 ± 0.144 | 0.423 ± 0.037 µM | 4.29 ± 1.03 | 2.12 ± 0.352 | moderately active | 30.8 |
| Cl.Nc1nc(NCCNc2ccc(Cl)cc2)nc(NCCc2c[nH]c3ccccc23)n1 [Compound 9, N^2-(2-(1H-Indol-3-yl)ethyl)-N^4-(2-((4-Chlorophenyl)amino)ethyl)-1,3,5-Triazine-2,4,6-Triamine Hydrochloride] | 97 to 100 | 0.641 ± 0.084 | 0.019 ± 0.004 µM |  | 2.7 ± 0.581 | active | 16.2 |
| Cl.Nc1nc(NCCNc2cccc(F)c2)nc(NCCc2c[nH]c3ccccc23)n1 [Compound 11, N^2-(2-(1H-Indol-3-yl)ethyl)-N^4-(2-((3-Fluorophenyl)amino)ethyl)-1,3,5-Triazine-2,4,6-Triamine Hydrochloride] | 74 to 79 | 0.979 ± 0.237 | 0.024 ± 0.005 µM | 13.8 | 1.28 ± 0.168 | active | 34.6 |
| Cl.Nc1nc(NCCc2c[nH]c3ccccc23)nc(Nc2cccc(Cl)c2)n1 [Compound 20, N^2-(2-(1H-Indol-3-yl)ethyl)-N^4-(3-Chlorophenyl)-1,3,5-Triazine-2,4,6-Triamine Hydrochloride] | 174 to 178 | 2.23 ± 0.528 | 1.95 ± 0.261 µM | 2.27 ± 0.153 | 2.69 ± 0.549 | inactive | 14.1 |
| Cl.Nc1nc(NCCNc2cccc(Cl)c2)nc(NCCc2c[nH]c3ccccc23)n1 [Compound 8, N^2-(2-(1H-Indol-3-yl)ethyl)-N^4-(2-((3-Chlorophenyl)amino)ethyl)-1,3,5-Triazine-2,4,6-Triamine Hydrochloride] | 77 to 82 | 4.02 ± 0.719 | 0.131 ± 0.016 µM | 1.24 ± 0.257 | 1.8 ± 0.264 | moderately active | 15.6 |
